{"source": "paper PMC7380196", "about": "“Unveiling the activation dynamics of a fold-switch bacterial glycosyltransferase by ^19F NMR” (The Journal of Biological Chemistry, 2020)", "target": "T1, PimA (Mycolicibacterium smegmatis, UniProt A0QWG6)", "T1 construct": "recombinant from pET29a-pimA in E. coli BL21(DE3) pLysS; purified", "T1 sequence (A0QWG6 1-386)": "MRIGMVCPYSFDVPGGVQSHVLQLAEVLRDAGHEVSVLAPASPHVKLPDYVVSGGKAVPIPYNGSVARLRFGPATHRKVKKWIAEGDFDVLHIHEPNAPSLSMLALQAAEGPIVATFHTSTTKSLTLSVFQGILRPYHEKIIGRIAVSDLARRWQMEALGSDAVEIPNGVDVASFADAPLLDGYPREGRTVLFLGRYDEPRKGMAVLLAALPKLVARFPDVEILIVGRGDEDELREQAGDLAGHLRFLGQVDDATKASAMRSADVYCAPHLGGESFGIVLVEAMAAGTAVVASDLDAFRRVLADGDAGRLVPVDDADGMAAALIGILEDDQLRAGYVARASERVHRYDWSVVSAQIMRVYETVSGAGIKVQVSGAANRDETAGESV", "assay": "thermal unfolding by far-UV CD at […] nm", "format": "binding", "details": "10 mM Tris-HCl, pH 7.5; 10 uM protein, ligand 1:15"}
{"compound": "Nc1nc2c(ncn2[C@@H]2O[C@H](COP(=O)(O)OP(=O)(O)O)[C@@H](O)[C@H]2O)c(=O)[nH]1", "note": "[GDP]", "values": [{"measurement": "Tm", "result": "after the addition of GDP, wild-type PimA, PimA^R144C, and PimA^R144C-TFA displayed a clear increase"}]}
